This passage reports IC50 results from patent US20090170886A1 (Pfizer Inc, priority 2005, published 2009).

Experiment [1] has as its target T1, androgen receptor in MDA-MB453-MMTV clone 54-19 cells (Homo sapiens, UniProt P10275).
T1 sequence (P10275 1-920 Q868H): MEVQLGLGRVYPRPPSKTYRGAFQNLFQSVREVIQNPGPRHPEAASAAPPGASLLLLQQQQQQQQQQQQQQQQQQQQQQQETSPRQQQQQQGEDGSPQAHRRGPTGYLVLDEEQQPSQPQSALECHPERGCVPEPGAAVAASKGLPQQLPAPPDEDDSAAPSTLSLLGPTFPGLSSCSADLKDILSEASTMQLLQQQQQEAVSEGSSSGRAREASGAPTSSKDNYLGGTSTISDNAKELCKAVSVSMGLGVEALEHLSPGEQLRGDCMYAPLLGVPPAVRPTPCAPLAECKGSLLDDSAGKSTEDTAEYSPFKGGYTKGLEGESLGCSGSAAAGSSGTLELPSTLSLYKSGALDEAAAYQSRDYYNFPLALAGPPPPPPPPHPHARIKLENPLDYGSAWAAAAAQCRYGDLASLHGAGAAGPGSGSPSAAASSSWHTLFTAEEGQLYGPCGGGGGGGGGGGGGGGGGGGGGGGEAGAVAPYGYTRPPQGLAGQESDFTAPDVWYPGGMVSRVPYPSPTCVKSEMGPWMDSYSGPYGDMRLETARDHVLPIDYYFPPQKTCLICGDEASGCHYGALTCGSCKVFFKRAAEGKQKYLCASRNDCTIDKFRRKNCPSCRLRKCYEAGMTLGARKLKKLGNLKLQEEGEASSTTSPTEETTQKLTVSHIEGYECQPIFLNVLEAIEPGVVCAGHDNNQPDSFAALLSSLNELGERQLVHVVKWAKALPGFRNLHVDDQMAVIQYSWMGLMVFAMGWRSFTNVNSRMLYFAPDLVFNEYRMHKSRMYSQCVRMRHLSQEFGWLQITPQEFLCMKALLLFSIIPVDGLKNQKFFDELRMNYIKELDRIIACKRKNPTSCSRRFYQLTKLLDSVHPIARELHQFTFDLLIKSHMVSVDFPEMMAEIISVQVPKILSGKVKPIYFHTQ
The experiment in a line: AR Antagonist Cell Assay (MMTV-luciferase reporter, DHT-induced). The class given is cell-based. Conditions: MDA-MB453-MMTV clone 54-19, 100 pM DHT, 17 hr; mean of multiple tests. As to the method: The compounds ability to antagonize the effects of androgen on the androgen receptor were determined in a whole cell assay as described immediately below.
Cell line: MDA-MB453-MMTV clone 54-19. This cell line is a stable transfected cell line with MDA-MB453 cell background (a human breast tumor cell line expressing androgen receptor). A MMTV minimal promoter containing ARE was first cloned in front of a firefly luciferase reporter gene. Then the cascade was cloned into transfection vector pUV120puro. Electroporation method was used for transfecting MDA-MB-453 cell. Puromycin resistant stable cell line was selected.
Culture medium: DMEM (high glucose, Gibco cat #: 11960-044), 10% FBS, and 1% L-glutamine
Plating medium: DMEM (phenol red free), 10% charcoal treated HyClone serum, 1% L-glutamine
Assay medium: DMEM (phenol red free), 1% charcoal treated HyClone serum, 1% L-glutamine, and 1% penicillin/streptomycin
3× luciferase buffer: 2% beta-mercaptoethanol, 0.6% ATP, 0.0135% luciferine in cell lysis buffer
Cells are maintained in culture medium, splitting cells when they reach 80-90% confluence. To test compounds, 10,000 cells/well are plated to opaque 96 cell culture plate in 100 ul/well plating medium, culture for overnight at 37° C. in cell culture incubator. Carefully remove plating medium, then add 80 ul/well of pre-warmed assay medium, add 10 ul/well testing compound (final concentration at) 1000 nM, 200 nM, 40 nM, 8 nM, 1.6 nM, and 0.32 nM), incubate at 37° C. for 30 minutes. Add 10 ul/well freshly prepared DHT (final concentration at 100 pM) to each well, incubate at 37° C. for 17 hr (overnight). Add 50 ul/well 3× luciferase buffer, incubate at room temperature for 5 minutes, then count on Luminometer. The fold induction over background by 100 pM DHT in the absence of testing compounds is standardized as 100% and experimental result is expressed as percentage of inhibition by testing compounds.
The results are reported as the mean of multiple tests as described below (the numbers of tests are indicated in the footnote). ND denotes that the compound was not tested.
On the technique in general: In a reporter assay the amount or activity of a reporter protein is the signal.

For experiment [2], the target named is T2, hAR (human androgen receptor, baculovirus/Sf9 generated extracts) (Homo sapiens, UniProt P10275).
T2 construct: made in house; host or cells: baculovirus/Sf9 insect cells (crude extract)
T2 sequence (P10275 1-920): T1 sequence (P10275 1-920 Q868H) with H868Q
The experiment is described as follows: AR Binding Assay (competitive binding with 3H-DHT tracer). The note with it: 1 nM 3H-DHT, one hour at 4° C., mean of multiple tests. The method, then:
The compounds of Formula I have affinity for the androgen receptor. […] The description below describes how the assay was carried out.
Competitive binding analysis was performed on baculovirus/Sf9 generated hAR extracts in the presence or absence of different concentrations of test agent and a fixed concentration of ^3H-dihydrotestosterone (^3H-DHT) as tracer. This binding assay method is a modification of a protocol previously described (Liao S., et. al., J. Steroid Biochem., 20:11-17, 1984). Briefly, progressively decreasing concentrations of compounds are incubated in the presence of hAR extract (Chang et al., P.N.A.S., Vol. 89, pp. 5546-5950, 1992), hydroxylapatite, and 1 nM ^3H-DHT for one hour at 4° C. Subsequently, the binding reactions are washed three times to completely remove excess unbound ^3H-DHT. hAR bound ^3H-DHT levels are determined in the presence of compounds (i.e. competitive binding) and compared to levels bound when no competitor is present (i.e. maximum binding). Compound binding affinity to the hAR is expressed as the concentration of compound at which one half of the maximum binding is inhibited. Table II below provides the results that were obtained for selected compounds (reported data is the mean of multiple tests as shown below).

[3] abbreviates: hAR extract, read-out: AR Binding IC50.

As usually defined, the pIC50 is −log10 of the IC50, conventionally taken in molar units.

Changes are numbered by the printed parent chain. pIC50: −log10 of the molar value. Like-named read-outs stand apart in the source and are kept apart here.

In the case of `CC(Oc1ccc(C#N)c(C(F)(F)F)c1)c1ccccn1` (racemic) [Example 35, 4-(1-Pyridin-2-yl-ethoxy)-2-trifluoromethyl-benzonitrile], the pIC50 in experiment [1] is 6.60; in experiment [2] (AR Binding IC50, hAR extract) it was 6.74.
In the same order, the values of `CC(Oc1ccc(C#N)c(C(F)(F)F)c1)c1cccnc1` (single isomer, unassigned) [Example 34, 4-(1-Pyridin-3-yl-ethoxy)-2-trifluoromethyl-benzonitrile] are 7.03 and 6.85.
Taken in the same sequence, the figures for `CC(Oc1ccc(C#N)c(C(F)(F)F)c1)c1cccc(C#N)c1` (single isomer, unassigned) [Example 78, 4-[1-(3-Cyano-phenyl)-ethoxy]-2-trifluoromethyl-benzonitrile] were 7.33 and 7.43.
In the same order, the values of `CC(Oc1ccc(C#N)c(C(F)(F)F)c1)c1cccc(O)c1` (single isomer, unassigned; (+)) [Example 10, (+)-4-[1-(3-Hydroxyphenyl)ethoxy]-2-(trifluoromethyl)benzonitrile] are at most 6.00 and 8.52.
As to `CCC(Oc1ccc(C#N)c(C(F)(F)F)c1)c1cccc(O)c1` (single isomer, unassigned; (+)) [Example 12, (+)4-[1-(3-Hydroxyphenyl)propoxy]-2-(trifluoromethyl)benzonitrile], the negative-log IC50 (pIC50) was below 6.00 in experiment [1] and 7.72 in experiment [2] (AR Binding IC50, hAR extract).
Turning to `C=CCC(Oc1ccc(C#N)c(C(F)(F)F)c1)c1cccc(O)c1` (single isomer, unassigned; (+)) [Example 18, (+)4-{[1-(3-Hydroxyphenyl)but-3-enyl]oxy}-2-(trifluoromethyl)benzonitrile], the negative logarithm of the IC50 (pIC50) is 7.07 in experiment [1] and 7.77 in experiment [2] (AR Binding IC50, hAR extract).
Taken in the same sequence, the figures for `CCC(Oc1ccc(C#N)c(C(F)(F)F)c1)c1cccc(O)c1` (single isomer, unassigned; (-)) [Example 13, (−)4-[1-(3-Hydroxyphenyl)propoxy]-2-(trifluoromethyl)benzonitrile] were 7.51 and 7.64.
Taken in the same sequence, the figures for `C[C@H](Oc1ccc(C#N)c(C(F)(F)F)c1)c1ccccc1` [Example 2, (S)-4-(1-Phenyl-ethoxy)-2-trifluoromethyl-benzonitrile] were 6.42 and 7.89.
In the same order, the values of `C[C@@H](Oc1ccc(C#N)c(C(F)(F)F)c1)c1ccccc1` [Example 3, (R)-4-(1-Phenyl-ethoxy)-2-trifluoromethyl-benzonitrile] are 7.21 and 8.52.
Take `COc1cccc(C(C)Oc2ccc(C#N)c(C(F)(F)F)c2)c1` (stereo not drawn) [Example 4, 4-[1-(3-Methoxy-phenyl)-ethoxy]-2-t-trifluoromethyl-benzonitrile]: the pIC50 in experiment [1] was below 6.00; in experiment [2] (setting [3]), 7.11.
In the same order, the values of `COc1ccccc1C(C)Oc1ccc(C#N)c(C(F)(F)F)c1` (stereo not drawn) [Example 5, 4-[1-(2-Methoxy-phenyl)-ethoxy]-2-t-trifluoromethyl-benzonitrile] are below 6.00 and 6.51.
As to `C=CC(Oc1ccc(C#N)c(C(F)(F)F)c1)c1cccc(O)c1` (stereo not drawn) [Example 16, 4-{[1-(3-Hydroxyphenyl)prop-2-enyl]oxy}-2-(trifluoromethyl)benzonitrile], the negative-log IC50 (pIC50) in experiment [1] is 6.38; in experiment [2] (AR Binding IC50, hAR extract), 7.96.
Take `CC(Oc1ccc(C#N)c(C(F)(F)F)c1)c1ccccc1Cl` (stereo not drawn) [Example 22, 4-[1-(2-Chloro-phenyl)-ethoxy]-2-trifluoromethyl-benzonitrile]: the negative-log IC50 (pIC50) in experiment [1] was 6.99; in experiment [2] (setting [3]) it was 6.97.
Turning to `CC(Oc1ccc(C#N)c(C(F)(F)F)c1)c1ccccc1F` (stereo not drawn) [Example 24, 4-[1-(2-Fluoro-phenyl)-ethoxy]-2-trifluoromethyl-benzonitrile], the negative-log IC50 (pIC50) in experiment [1] is 6.08; in experiment [2] (AR Binding IC50, hAR extract), 7.10.
In the same order, the values of `CC(Oc1ccc(C#N)c(C(F)(F)F)c1)c1ccc(F)cc1` (stereo not drawn) [Example 25, 4-[1-(4-Fluoro-phenyl)-ethoxy]-2-trifluoromethyl-benzonitrile] are 7.04 and 6.86.
In the same order, the values of `CC(Oc1ccc(C#N)c(C(F)(F)F)c1)c1cccc(Cl)c1` (stereo not drawn) [Example 26, 4-[1-(3-Chloro-phenyl)-ethoxy]-2-trifluoromethyl-benzonitrile] are 7.25 and 6.91.
Regarding `Cc1cccc(C(C)Oc2ccc(C#N)c(C(F)(F)F)c2)c1` (stereo not drawn) [Example 28, 4-(1-m-Tolyl-ethoxy)-2-trifluoromethyl-benzonitrile], the negative-log IC50 (pIC50) in experiment [1] is 6.24; in experiment [2] (AR Binding IC50, hAR extract) it was 7.30.
`CC(Oc1ccc(C#N)c(C(F)(F)F)c1)c1cccc(C#N)c1` (stereo not drawn) [Example 30, 4-[1-(3-Cyano-phenyl)-ethoxy]-2-trifluoromethyl-benzonitrile]: the negative-log IC50 (pIC50) is 8.15 in experiment [1] and 7.66 in experiment [2] (AR Binding IC50, hAR extract).
